Test results from US20220062240A1, “METHODS OF TREATING CANCER USING A CLK INHIBITOR” (BioSplice Therapeutics, Inc., priority 2018, published 2022).
Where two headings read alike, the source gives them in different places.

Key:
CLK3 = CLK3 (Homo sapiens, UniProt P49761); assay: CLK3 kinase activity assay (Z-lyte, Ser/Thr 18 peptide)
[1] = tested on: pancreatic cancer (8 cell lines); assay: CellTiter-Glo Viability Assay, pancreatic cancer; format: cell-based; settings: Homo sapiens, inhibition of cancer cell proliferation
[2] = tested on: ovarian cancer (4 cell lines); assay: CellTiter-Glo Viability Assay, ovarian cancer; format: cell-based; settings: Homo sapiens, inhibition of cancer cell proliferation
all 50 cell lines = assay: CellTiter-Glo Viability Assay, average across all cell lines; format: cell-based; settings: Homo sapiens; across all 50 cell lines; read-out: average EC50 for inhibition of cancer cell proliferation
Outline: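 4-day proliferation, 37° C/5% CO2; 300-3,000 cells/well; compound in duplicate vs DMSO controls. Panel: breast, colorectal, heme/lymphoid, liver, lung, ovarian, pancreatic, prostate lines. Read-out: CellTiter-Glo ATP luminescence, EC50 from dose-response.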

[3] = tested on: liver cancer (3 cell lines); assay: CellTiter-Glo Viability Assay, liver cancer; format: cell-based; settings: Homo sapiens, inhibition of cancer cell proliferation
[4] = tested on: colorectal cancer (6 cell lines); assay: CellTiter-Glo Viability Assay, colorectal cancer; format: cell-based; settings: Homo sapiens, inhibition of cancer cell proliferation
[5] = tested on: prostate cancer (5 cell lines); assay: CellTiter-Glo Viability Assay, prostate cancer; format: cell-based; settings: Homo sapiens
CLK2 = target: T1, CLK2 (Homo sapiens, UniProt P49760); assay: CLK2 kinase activity assay (Z-lyte, Ser/Thr 6 peptide); format: biochemical; settings: recombinant CLK2 kinase, ATP 60 μM; read-out: EC50
T1 construct: purchased Thermo Fisher (Life Technologies), Z'-LYTE Kinase Assay Kits
T1 sequence (P49760 whole entry): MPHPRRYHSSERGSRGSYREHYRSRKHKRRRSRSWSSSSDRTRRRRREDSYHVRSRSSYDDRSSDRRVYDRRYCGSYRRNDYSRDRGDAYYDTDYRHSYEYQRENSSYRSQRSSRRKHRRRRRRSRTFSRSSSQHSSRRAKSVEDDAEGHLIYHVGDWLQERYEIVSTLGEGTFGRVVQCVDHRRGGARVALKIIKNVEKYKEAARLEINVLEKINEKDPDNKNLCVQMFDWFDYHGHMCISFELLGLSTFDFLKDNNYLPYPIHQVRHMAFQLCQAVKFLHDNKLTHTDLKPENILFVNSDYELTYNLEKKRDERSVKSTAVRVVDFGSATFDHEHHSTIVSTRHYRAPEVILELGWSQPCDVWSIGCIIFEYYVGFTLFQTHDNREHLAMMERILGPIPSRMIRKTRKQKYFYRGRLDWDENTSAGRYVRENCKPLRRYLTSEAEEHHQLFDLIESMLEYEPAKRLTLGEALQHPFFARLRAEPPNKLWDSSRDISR
Method: All reactions were performed in duplicate.

[6] = tested on: lung cancer (4 cell lines); assay: CellTiter-Glo Viability Assay, lung cancer; format: cell-based; settings: Homo sapiens, inhibition of cancer cell proliferation
CAMA1 = assay: CellTiter-Glo Viability Assay, breast cancer; format: cell-based; settings: Homo sapiens, CAMA-1, 96 h; CAMA1, breast cancer, four days; read-out: EC50
MCF7 = assay: CellTiter-Glo Viability Assay, breast cancer; format: cell-based; settings: Homo sapiens, 96 h; MCF7, breast cancer, four days; read-out: EC50
HCC1599 = assay: CellTiter-Glo Viability Assay, breast cancer; format: cell-based; settings: Homo sapiens, 96 h; HCC1599, breast cancer, four days; read-out: EC50
BT-549 = assay: CellTiter-Glo Viability Assay, breast cancer; format: cell-based; settings: Homo sapiens, 96 h; BT-549, breast cancer, four days; read-out: EC50
ZR-75-1 = assay: CellTiter-Glo Viability Assay, breast cancer; format: cell-based; settings: Homo sapiens, 96 h; ZR-75-1, breast cancer, four days; read-out: EC50
T47D = assay: CellTiter-Glo Viability Assay, breast cancer; format: cell-based; settings: Homo sapiens, 96 h, breast cancer, four days, read-out: EC50
MDA-MB-231-Luc = assay: CellTiter-Glo Viability Assay, breast cancer; format: cell-based; settings: Homo sapiens, 96 h; MDA-MB-231-Luc, breast cancer, four days; read-out: EC50
DU4475 = assay: CellTiter-Glo Viability Assay, breast cancer; format: cell-based; settings: Homo sapiens, DU-4475, 96 h; DU4475, breast cancer, four days; read-out: EC50
[7] = tested on: haematopoietic & lymphoid tumors (13 cell lines); assay: CellTiter-Glo Viability Assay, haematopoietic & lymphoid tumors; format: cell-based; settings: Homo sapiens, inhibition of cancer cell proliferation

CLK3, sequence (P49761 whole entry): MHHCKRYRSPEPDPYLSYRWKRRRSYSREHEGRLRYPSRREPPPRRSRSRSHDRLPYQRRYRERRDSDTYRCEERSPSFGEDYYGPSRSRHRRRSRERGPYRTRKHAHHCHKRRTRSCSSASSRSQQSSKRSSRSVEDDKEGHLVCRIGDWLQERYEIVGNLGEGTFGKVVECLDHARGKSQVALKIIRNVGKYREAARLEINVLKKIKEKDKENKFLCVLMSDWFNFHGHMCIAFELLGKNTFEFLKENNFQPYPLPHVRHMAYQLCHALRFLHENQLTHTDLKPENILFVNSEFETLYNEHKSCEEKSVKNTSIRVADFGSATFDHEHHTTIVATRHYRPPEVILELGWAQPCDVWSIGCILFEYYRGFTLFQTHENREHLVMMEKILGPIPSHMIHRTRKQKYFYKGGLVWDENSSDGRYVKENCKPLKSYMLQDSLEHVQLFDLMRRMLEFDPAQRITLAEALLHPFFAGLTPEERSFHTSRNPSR

EC50 (CLK3): 21.7 nM
EC50 ([1]; BXPC-3, BxPC3 cell line, read-out: Pancreatic cancer, EC50 BxPC3): 46 nM
EC50 ([1]; CAPAN-1, Capan1 cell line, read-out: Pancreatic cancer, EC50 Capan1): 114 nM
EC50 ([1]; Capan-2, Capan2 cell line, read-out: Pancreatic cancer, EC50 Capan2): 151 nM
EC50 ([1]; MIA PaCa-2 cell line, read-out: Pancreatic cancer, EC50 MIA PaCa-2): 60 nM
EC50 ([1]; PANC 05.04 cell line, read-out: Pancreatic cancer, EC50 PANC 05.04): 140 nM
EC50 ([1]; PANC-1 cell line, read-out: Pancreatic cancer, EC50 PANC-1): 217 nM
EC50 ([1]; UPAFII cell line, read-out: Pancreatic cancer, EC50 UPAFII): 106 nM
EC50 ([2]; PA-1, PA1 cell line, read-out: Ovarian cancer, EC50 (μM) PA1): 0.23 µM
EC50 ([2]; TOV112D, TOV-112D cell line, read-out: Ovarian cancer, EC50 (μM) TOV-112D): 0.101 µM
EC50 ([2]; OV-90 cell line, read-out: Ovarian cancer, EC50 (μM) OV-90): 0.361 µM
EC50 ([2]; OVCAR-3 cell line, read-out: Ovarian cancer, EC50 (μM) OVCAR-3): 0.111 µM
EC50 ([3]; SNU-398, SNU398 cell line, read-out: Liver cancer, EC50 SNU398): 55 nM
EC50 ([3]; HEPG2 cell line, read-out: Liver cancer, EC50 HEPG2): 164 nM
EC50 ([3]; PLC/PRF/5 cell line, read-out: Liver cancer, EC50 PLC/PRF/5): 371 nM
EC50 ([4]; HCT-116, HCT116 cell line, read-out: Colorectal cancer, EC50 (μM) HCT116): 0.06 µM
EC50 ([4]; HT-29, HT29 cell line, read-out: Colorectal cancer, EC50 (μM) HT29): 0.171 µM
EC50 ([4]; SW-620, SW620 cell line, read-out: Colorectal cancer, EC50 (μM) SW620): 0.047 µM
EC50 ([4]; DLD-1 cell line, read-out: Colorectal cancer, EC50 (μM) DLD-1): 0.131 µM
EC50 ([4]; SW48 cell line, read-out: Colorectal cancer, EC50 (μM) SW48): 0.023 µM
EC50 ([4]; SW480 cell line, read-out: Colorectal cancer, EC50 (μM) SW480): 0.061 µM
EC50 ([5]; DU-145, read-out: Prostate cancer EC50 Du-145): 123 nM
EC50 ([5]; PC-3, PC3 cell line, inhibition of cancer cell proliferation, read-out: Prostate cancer EC50 PC3): 93 nM
EC50 ([5]; 22Rv1 cell line, inhibition of cancer cell proliferation, read-out: Prostate cancer EC50 22Rv1): 102 nM
EC50 ([5]; LNCap clone FGC cell line, inhibition of cancer cell proliferation, read-out: Prostate cancer EC50 LNCap clone FGC): 332 nM
EC50 ([5]; VCaP (Sigma) cell line, inhibition of cancer cell proliferation, read-out: Prostate cancer EC50 VCaP (Sigma)): 98 nM
EC50 (CLK2): 11.2 nM
EC50 ([6]; A-427, A427 cell line, read-out: Lung cancer, EC50 (μM) A427): 0.13 µM
EC50 ([6]; HCC78, HCC-78 cell line, read-out: Lung cancer, EC50 (μM) HCC-78): 0.136 µM
EC50 ([6]; NCI-H460 cell line, read-out: Lung cancer, EC50 (μM) NCI-H460): 0.243 µM
EC50 ([6]; NCI-H522 cell line, read-out: Lung cancer, EC50 (μM) NCI-H522): 0.091 µM
EC50 (CAMA1): 433 nM
EC50 (MCF7): 360 nM
EC50 (HCC1599): 125 nM
EC50 (BT-549): 116 nM
EC50 (ZR-75-1): 216 nM
EC50 (T47D): 281 nM
EC50 (MDA-MB-231-Luc): 202 nM
EC50 (DU4475): 95 nM
EC50 ([7]; DND41, DND-41 cell line, read-out: Haematopoietic & Lymphoid tumors, EC50 (μM) DND-41): 0.106 µM
EC50 ([7]; MV4-11, MV-4-11 cell line, read-out: Haematopoietic & Lymphoid tumors, EC50 (μM) MV-4-11): 0.008 µM
EC50 ([7]; Rec1, REC-1 cell line, read-out: Haematopoietic & Lymphoid tumors, EC50 (μM) REC-1): 0.022 µM
EC50 ([7]; SU-DHL-4, SUDHL4 cell line, read-out: Haematopoietic & Lymphoid tumors, EC50 (μM) SUDHL4): 0.079 µM
EC50 ([7]; HL-60 cell line, read-out: Haematopoietic & Lymphoid tumors, EC50 (μM) HL-60): 0.246 µM
EC50 ([7]; JM1 cell line, read-out: Haematopoietic & Lymphoid tumors, EC50 (μM) JM1): 0.06 µM
EC50 ([7]; JURKAT, Clone E6-1 cell line, read-out: Haematopoietic & Lymphoid tumors, EC50 (μM) JURKAT, Clone E6-1): 0.226 µM
EC50 ([7]; JeKo-1 cell line, read-out: Haematopoietic & Lymphoid tumors, EC50 (μM) JeKo-1): 0.04 µM
EC50 ([7]; KASUMI-1 cell line, read-out: Haematopoietic & Lymphoid tumors, EC50 (μM) KASUMI-1): 0.053 µM
EC50 ([7]; Loucy cell line, read-out: Haematopoietic & Lymphoid tumors, EC50 (μM) Loucy): 0.105 µM
EC50 ([7]; MOLT-4 cell line, read-out: Haematopoietic & Lymphoid tumors, EC50 (μM) MOLT-4): 0.125 µM
EC50 ([7]; TF-1 cell line, read-out: Haematopoietic & Lymphoid tumors, EC50 (μM) TF-1): 0.08 µM
EC50 ([7]; TOLEDO cell line, read-out: Haematopoietic & Lymphoid tumors, EC50 (μM) TOLEDO): 0.066 µM
SMILES: CN1CCC(C(=O)Nc2c[nH]nc2-c2nc3c(-c4ccc(F)s4)cccc3[nH]2)CC1 [Compound 90]
EC50 (all 50 cell lines): 142 nM
